One data set relates to Sod2CJE(−/−) mice. In words: Survival (lifespan) of Sod2CJE(−/−) mice given daily intraperitoneal test compound. It counts as in vivo, mouse. Particulars: for mean life-span: Sod2CJE(−/−) pups, Euk-8 daily 30 mg/kg, MnTBAP-treated pups. How it is done: Mice lacking functional MnSOD have been described by Li et al. (1995) Nature Genetics 11:376-381, incorporated herein by reference. The genotypes of one-day-old pups are determined by genetic analysis of tissue surgically excised from the toe or tail tip (2-3 mm). In these mice the third exon of the Sod2 gene has been deleted, thus, destroying the ability to synthesize an active mitochondrial MnSOD.
Litters were grouped into two sizes: large, >6 pups/litter of mutant, heterozygous and normal pups; and small, ≦6 Sod2CJE(−/−) pups/litter, in which the wild type and heterozygous pups were removed at three days of age to ensure that the homozygous mutant pups had unrestricted access to food and nurturing.
(§1) In most experiments, MnTBAP was prepared for injection by dissolving in 0.1 M NaOH, diluted with sterile water to a dosage level of 5 mg MnTBAP/kg, and administered by daily intra-peritoneal (IP) injections of between 10 and 45 μl, 2 hours post weighing, from 3 days of age. In addition to homozygous mutant animals, both heterozygotes and wild-type animals were injected to serve as controls. Wild-type or heterozygous Sod2CJE pups were sacrificed at the same age as Sod2CJE(−/−) pups to serve as controls.
Mouse pups are injected intraperitoneally with test compounds with a 50 microliter Hamilton syringe and a 31 G needle. The maximum volume administered to pups younger than 6 days of age is 20 μl. Injections are given daily, at the same time per day ±2 hours.
The MnTBAP stock solution is diluted down to the administered dose, which is dependent on body weight. For MnTBAP, the dosage is 5 mg/kg per day. Pups are weighed daily to allow calculation of the appropriate dosage.
Survival analysis was carried out by examining the animals daily to determine mortality, and entering the results into a life-table in the program Statistica (Statsoft, Tulsa, Okla.). Comparison between groups was carried out using the Kaplan and Meier survival function, non-parametric t-tests, and the Gehans Wilcoxon statistic from within the program to compare groups.
In general, experiments are carried out with Sod2CJE(−/−) mice, starting at 3 days of age, and the mice are weighed and divided into test and control groups. Test mice receive the compound for which evaluation as an antioxidant is desired at a dosage which is below the level of toxicity. Unless otherwise indicated, the test compound is administered in a pharmaceutically acceptable carrier by the intraperitoneal route. Unless otherwise determined to be advantageous, the test compound is administered at the same time each day (±2 hours).

The test system of data set [1] is Sod2CJE(−/−) animals. Briefly: Lipid in liver by Oil red-O staining, treated Sod2CJE(−/−) animals. It counts as in vivo, mouse. On the set-up: key to Lipid Mode (score): 0=no observable lipid in sections; 1=mild diffuse speckled distribution of lipid; 2=more intense speckled pattern; 3=coalescence of small lipid droplets into large intercellular droplets; 4=massive intercellular lipid droplet accumulation. Particulars: for accumulation of lipid in the liver: treated MnSOD-deficient homozygotes, qualitative; for Lipid % Control / Lipid Mean (score) / Lipid Mode (score): MnTBAP treated Sod2CJE(−/−); for Lipid % Control: control = untreated (−/−) 6-10 days; for Lipid Mean (score) / Lipid Mode (score): score 0-4. From the text:
(see also Table 2). […] The level of lipid in liver sections was scored as follows: 0=no observable lipid in sections, 1=mild diffuse speckled distribution of lipid, 2=more intense speckled pattern, 3=coalescence of small lipid droplets into large intercellular droplets, and 4=massive intercellular lipid droplet accumulation. Wild-type or heterozygotes treated with MnTBAP for 3 weeks had no observable difference in the morphology of the liver compared to untreated controls (+/+or +/−). The livers of 25 MnTBAP treated Sod2CJE(−/−) animals were examined at 12, 14 and 17 days of age (Table 2) and compared with treated wild type animals.
Assessment of the effect of MnTBAP treatment on liver morphology was carried out by blind assessment of wild-type and heterozygous animals chronically treated with compound for 3 weeks. Hematoxylin and Eosin stained sections from 27 treated homozygous normal (+/+) and heterozygous (+/−) animals were compared with 2 untreated control animals. To evaluate lipid in the liver of treated homozygous mutant MnSOD(−/−) animals, 8 u frozen sections were prepared and stained with Oil red O [Li et al. (1995) supra]. Each section was evaluated for the quantity and size of lipid droplets by arbitrarily scoring with a numerical value (Table 2). The ratings of multiple animals were then averaged.

Data set [2] relates to Sod2CJE(−/−) animals. Briefly: Behavioral analysis and neuropathology of treated Sod2CJE(−/−) animals. Particulars: for neurological and behavioral phenotype: treated Sod2CJE(−/−) mice. Type of data set: in vivo. How it is done:
Treated Sod2CJE(−/−) animals were observed daily from 10 days through to greater than five weeks for behavioral abnormalities compared to litter mate controls. Daily video recordings of up to 10 minutes were made to longitudinally track the development of behavioral changes. A total of 187 video recordings were made of 63 animals from 10 to 23 days of age.
For pathology, the brains were removed from the sacrificed animals and fixed in 10% buffered formalin for up to 7 days. They were then processed, embedded, and sectioned. In some cases representative sections were made every 20 sections or so at 7 microns thickness throughout the brain and stained with hematoxylin and eosin for examination by light microscopy. In other cases, the entire brain was sectioned at 8 microns throughout. Fifteen Sod2CJE(−/−) brains between 11 and 23 days of age were examined by hematoxylin and eosin staining and light microscopy in coronal, sagittal, or horizontal orientations with 17 controls in a blinded study (4 heterozygotes and 6 wild-types treated; and 2 heterozygotes and 5 wild-types untreated).
During the course of an experiment, each mouse is evaluated daily for weight, lethargy, lack of appetite, its vital signs and for any indication of neurological disorders (observed for circling behavior, dystonia, trembling or the like. Video records can be made for later evaluation, for example for side-by-side comparisons or for observing changes over time. Cardiac histopathology and central nervous system tissue analysis are carried out after death of the animal or after sacrifice of the animal.

In data set [3] the test system is succinate dehydrogenase (SDH, Complex II). In words: Histochemical staining of succinate dehydrogenase (SDH, Complex II) in tissue of treated MnSOD-deficient homozygotes. Type of data set: in vivo, mouse. The text has this: Fat accumulates in the liver, where it can be detected by Oil Red O staining. […] By contrast, in Euk-8 treated animals both the lipid accumulation in the liver and SDH inhibition are rescued.

Data set [4] relates to Sod2CJE(−/−) animals. Briefly: Cardiac measurements and histology in treated Sod2CJE(−/−) animals. Type of data set: in vivo, mouse. Particulars: 20-21 days of age. How it is done: Cardiac dimensions were measured at 21 days of age for wild-type and heterozygous animals. These were compared with homozygous mutant animals treated with MnTBAP as described [Li et al. (1995) supra].

Data set [5] relates to control animals (+/+, +/−). Briefly: Pathology of liver, brain and heart in treated control animals (+/+, +/−). Type of data set: in vivo, mouse. Particulars: control animals (+/+, +/−) treated with MnTBAP. How it is done:
as §1
For pathology, the brains were removed from the sacrificed animals and fixed in 10% buffered formalin for up to 7 days. They were then processed, embedded, and sectioned. In some cases representative sections were made every 20 sections or so at 7 microns thickness throughout the brain and stained with hematoxylin and eosin for examination by light microscopy. In other cases, the entire brain was sectioned at 8 microns throughout. […]
Assessment of the effect of MnTBAP treatment on liver morphology was carried out by blind assessment of wild-type and heterozygous animals chronically treated with compound for 3 weeks. […] Each section was evaluated for the quantity and size of lipid droplets by arbitrarily scoring with a numerical value (Table 2). […]

Data set [6] is described as follows: Transmission of orally administered compound to the milk of nursing mothers. It counts as in vivo, mouse. The text has this:
The skilled artisan understands how to test a particular compound for its toxicity in a particular mammal, for its ability to cross the blood-brain barrier and for its ability to enter the bloodstream and/or the cerebrospinal fluid. Preferred compounds are those which readily enter circulation and the central nervous system so that maximum amelioration of any disorder or disease resulting from oxidative damage, especially from superoxide radical.

For data set [7] the following is noted: in vitro; cited from earlier work.
A further data set concerns cells. Particulars: in vitro; cited from earlier work.
The conditions of data set [8]: mice, after the barrier is established at about 7-12 days of age; cited from earlier work.
Setting [9] is: SOD2−/− mice treated with free radical scavenging compounds (Table 4).
The mark [10] stands for this setting: Sod2CJE(−/−), Large litter size (>6 pups), with MnTBAP, N=16.
Where [11] appears, read: Sod2CJE(−/−), Small litter size (≦6 pups), with MnTBAP, N=15.
Setting [12] is: Sod2CJE(−/−), all litter sizes, with MnTBAP 5 mg/kg daily IP, N=31, days of age.

As to `[Cl-].[Mn+3].[O-]c1ccccc1C=NCCN=Cc1ccccc1[O-]` [Euk-8], in the data set on Sod2CJE(−/−) mice (setting [9]), the “Mean Lifespan” value was determined as 22 days. The compound also came in with a mean life-span in the data set with Sod2CJE(−/−) mice of 22 days. For the same compound, in the data set with Sod2CJE(−/−) animals [1], the “accumulation of lipid in the liver” value was “rescued”. The “crossing of the blood brain barrier” value in the data set with Sod2CJE(−/−) animals [2] (concluded from beneficial effects on neuronal function in Sod2CJE(−/−) mouse) is “crosses the blood brain barrier”. In addition, the “neurological and behavioral phenotype” value with Sod2CJE(−/−) animals [2] is “rescue of the neurological and behavioral phenotype”. Further, the spongiform encephalopathy result with Sod2CJE(−/−) animals [2] (treated Sod2CJE(−/−) mouse, at 17 days) is “absent”. In addition, the “tissue SDH inhibition” value in data set [3] is listed as “rescued”.
With `O=C(O)c1ccc(-c2c3nc(c(-c4ccc(C(=O)O)cc4)c4ccc([nH]4)c(-c4ccc(C(=O)O)cc4)c4nc(c(-c5ccc(C(=O)O)cc5)c5ccc2[nH]5)C=C4)C=C3)cc1.[Mn]` [MnTBAP, Manganese 5,10,15,20-tetrakis(4-benzoic acid) porphyrin], the “mean age of survival” value in the data set with Sod2CJE(−/−) mice (MnSOD(−/−) mice, 5 mg/kg daily intraperitoneal, all litters, n=31, ±SD) stood at 16.4 ± 5.8 days; with Sod2CJE(−/−) mice (litters of more than six pups (unrestricted), ±SD), 16.1 ± 6.6 days. Also, the “proportion of mice that lived to greater than or equal to 20 days of age” value with Sod2CJE(−/−) mice (MnSOD(−/−) mice, 5 mg/kg daily intraperitoneal, n=31) was found to be 70%. Moreover, the “Mean Lifespan” value stood at 14 days in the data set with Sod2CJE(−/−) mice (setting [9]), 16.1 with Sod2CJE(−/−) mice (setting [10]), 16.6 in the data set on Sod2CJE(−/−) mice (setting [11]) and 16.4 in the data set with Sod2CJE(−/−) mice (setting [12]). Also, in the data set on Sod2CJE(−/−) mice, the mean life-span was 16 days. Moreover, the “Median (lifespan)” value in the data set on Sod2CJE(−/−) mice (setting [10]) was 21; in the data set on Sod2CJE(−/−) mice (setting [11]) it was 19; in the data set with Sod2CJE(−/−) mice (setting [12]) it was 20. In addition, the mean survival in the data set on Sod2CJE(−/−) mice (litters with six or less pups (restricted), ±SD) came to 11.4 ± 4.8 days. Moreover, the “proportion of treated Sod2CJE(−/−) animals with liver lipid levels comparable to untreated Sod2CJE(−/−) animals of 6-10 days” value in the data set on Sod2CJE(−/−) animals [1] (25 treated animals examined at 12, 14 and 17 days of age (2/25)) came out at 8%. Also, the “Lipid % Control” value in the data set with Sod2CJE(−/−) animals [1] (12 days old, n=9) was 23%; in the data set with Sod2CJE(−/−) animals [1] (14 days old, n=8) it was 23%; in the data set on Sod2CJE(−/−) animals [1] (17 days old, n=8), 40%. The “Lipid Mean (score)” value is recorded as 0.9 in the data set with Sod2CJE(−/−) animals [1] (12 days old, n=9); 0.9 in the data set on Sod2CJE(−/−) animals [1] (14 days old, n=8); 1.6 in the data set with Sod2CJE(−/−) animals [1] (17 days old, n=8). Also, the “Lipid Mode (score)” value is reported as 0 with Sod2CJE(−/−) animals [1] (12 days old, n=9); 0.5 with Sod2CJE(−/−) animals [1] (14 days old, n=8); 2 in the data set on Sod2CJE(−/−) animals [1] (17 days old, n=8). Besides, the “accumulation of lipid in the liver” value in the data set with Sod2CJE(−/−) animals [1] was “reduced”. Also, in the data set with Sod2CJE(−/−) animals [4], the “effect on cardiac defect (dilated cardiomyopathy)” value is given as “prevented the cardiac defect”. The “neurological and behavioral phenotype” value in the data set with Sod2CJE(−/−) animals [2] is “progressive motor impairment”. Moreover, the “toxicity (pathological changes in liver or brain)” value in data set [5] is reported as “not toxic”. The “tissue SDH inhibition” value in [3] is reported as “still inhibited”. Besides, the “transmission to the milk of nursing mothers” value in data set [6] is listed as “insufficient transmission”. Further, the “superoxide-degrading activity relative to Sod1/Sod2 when compared by weight” value in [7] was “about 10%”. The permeability to cells result with cells is given as “permeable to cells”. In data set [8], the “crossing of the blood-brain barrier” value was “does not cross the blood-brain barrier”.

These data come from US6900026B2, “Methods for identifying compounds as antioxidants” (priority 1996, dated 2005).
